The results in this text go back to patent US8440853B2, “Ester compound and use thereof” (Sumitomo Chemical Company, Limited, priority 2010, dated 2013).

What all share (assay type): in vivo
Experiment [1] concerns German cockroaches (Blattella germanica). The experiment is described as follows: Knock-down test, oil solution sprayed on German cockroaches (Test Example 2). The following applies: adult German cockroaches, 0.1% (w/v) oil solution, 1.5 ml sprayed. As for the experimental part: Zero point one (0.1) part of the compound of the present inventions (1), (2),(3) and (5) was dissolved in 10 parts of isopropyl alcohol and the solution was mixed with 89.9 parts of deodorized kerosene to prepare a 0.1% (w/v) oil solution.
Ten adult German cockroaches (Blattella germanica, 5 males and 5 females) were released in a test container (diameter 8.75 cm, 7.5 cm high, the bottom face is made of 16 mesh metallic wire), the inner face on which butter was applied, and the container was set at the bottom of a test chamber (bottom face: 46 cm×46 cm, height: 70 cm).
Each 1.5 ml of the oil solution of the compound of the present invention (1), (2), (3) and (5) was sprayed using a spray gun at a pressure of 0.4 kg/cm^2 from 60 cm higher than the upper face of the container. Thirty seconds after the spraying, the container was pulled out from the chamber. Two minutes after spraying, the number of knocked-down cockroaches was counted and a knock-down ratio was determined (repeated once). A knocked-down ratio was calculated by the following equation. Knocked-down ratio (%)=(Number of knocked-down cockroaches/Number of test cockroaches)×100 The results (2 minutes after spraying) are shown in Table 2.

For experiment [2], the system named is common mosquitoes (Culex pipens pallens). The experiment is described as follows: Knock-down test, oil solution sprayed into glass chamber with common mosquitoes (Test Example 3). The following applies: adult female common mosquitoes, 0.00625% (w/v) oil solution sprayed into 70 cm cubic glass chamber. Here is the method: Zero point zero zero six two five(0.00625) part of the compound of the present invention (1) was dissolved in 10 parts of isopropyl alcohol, and the solution was mixed with 89.99375 parts of deodorized kerosene to prepare a 0.00625% (w/v) oil solution.
Ten adult female common mosquitoes (Culex pipens pallens) were released in a cubic glass chamber having each side of 70 cm. The oil solution of the compound of the present invention (1) was sprayed into the chamber through a small window on the side of the chamber using a spraying gun at a pressure of 0.9 kg/cm^2. Ten minutes after spraying, the number of knocked-down mosquitoes was counted and a knock-down ratio was determined. A knocked-down ratio was calculated by the following equation. Knocked-down ratio (%)=(Number of knocked-down mosquitoes/Number of test mosquitoes)×100

Experiment [3] deals with American cockroaches (Periplaneta Americana). The experiment is described as follows: Knock-down test, oil solution sprayed on American cockroaches (Test Example 1). The following applies: adult American cockroaches, 0.1% (w/v) oil solution, 1.5 ml sprayed. Here is the method:
Zero point one (0.1) part of the compound of the present inventions (1) was dissolved in 10 parts of isopropyl alcohol and the solution was mixed with 89.9 parts of deodorized kerosene to prepare a 0.1% (w/v) oil solution.
Six adult American cockroaches (Periplaneta Americana, 3 males and 3 females) were released in a test container (diameter 12.5 cm, 10 cm high, the bottom face is made of 16 mesh metallic wire), the inner face on which butter was applied, and the container was set at the bottom of a test chamber (bottom face: 46 cm×46 cm, height: 70 cm). One point five (1.5) ml of the oil solution of the compound of the present invention (1) was sprayed using a spray gun at a pressure of 0.4 kg/cm^2 from 60 cm higher than the upper face of the container. Thirty seconds after the spraying, the container was pulled out from the chamber. Ten minutes after spraying, the number of knocked-down cockroaches was counted and a knock-down ratio was determined (repeated twice). The knocked-down ratio was calculated by the following equation. Knocked-down ratio (%)=(Number of knocked-down cockroaches/Number of test cockroaches)×100

Experiment [4] concerns houseflies (Musca domestica). The experiment is described as follows: Knock-down test, oil solution sprayed into glass chamber with houseflies (Test Example 4). The following applies: adult houseflies, 0.00625% (w/v) oil solution, 0.7 ml sprayed into 70 cm cubic glass chamber. Here is the method:
Zero point zero zero six two five(0.00625) part of the compound of the present invention (1), (3) and (4) was dissolved in 10 parts of isopropyl alcohol, and the solution was mixed with 89.99375 parts of deodorized kerosene to prepare a 0.00625% (w/v) oil solution.
Ten adult houseflies (Musca domestica) were released in a cubic glass chamber having each side of 70 cm, and 0.7 ml of the oil solution of the compound of the present invention (1), (3) and (4) was sprayed into the chamber through a small window on the side of the chamber using a spraying gun at a pressure of 0.9 kg/cm^2. Seven minutes after spraying, the number of knocked-down flies was counted and a knock-down ratio was determined. A knocked-down ratio was calculated by the following equation. Knocked-down ratio (%)=(Number of knocked-down flies/Number of test flies)×100

On to `CCCCSC(C#N)=C[C@@H]1[C@@H](C(=O)OCc2c(F)c(F)c(COC)c(F)c2F)C1(C)C` [compound of the present invention (2), 4-methoxymethyl-2,3,5,6-tetrafluorobenzyl=(1R)-trans-3-[(1EZ)-2-cyano-2-(butylthio)ethenyl]-2,2-dimethylcyclopropane carboxylate], for which, in experiment [1], the “Knock-down ratio (%) 2 minutes after spraying” value (from here on “Knock-down ratio (%) 2 minutes”) worked out at 100%.
`CCSC(C#N)=C[C@@H]1[C@@H](C(=O)OCc2c(F)c(F)c(C)c(F)c2F)C1(C)C` (relative stereo) [compound of the present invention (5), 4-methyl-2,3,5,6-tetrafluorobenzyl=(1R)-trans-3-[(1EZ)-2-cyano-2-(ethylthio)ethenyl]-2,2-dimethylcyclopropane carboxylate]: the “Knock-down ratio (%) 2 minutes” value in experiment [1] was found to be 100%.
`COCc1c(F)c(F)c(COC(=O)[C@@H]2[C@@H](/C=C(\C#N)SC)C2(C)C)c(F)c1F` [compound of the present invention (1), 4-methoxymethyl-2,3,5,6-tetrafluorobenzyl=(1R)-trans-3-[(1E)-2-cyano-2-(methylthio)ethenyl]-2,2-dimethylcyclopropane carboxylate]: the “Knock-down ratio (%) 10 minutes after spraying” value in experiment [2] is listed as 94%; in experiment [3], 100%. Also, in experiment [1], the “Knock-down ratio (%) 2 minutes” value was 100%. In experiment [4], the “Knock-down ratio (%) 7 minutes after spraying” value is reported as 100%.
With `CCSC(C#N)=C[C@@H]1[C@@H](C(=O)OCc2c(F)c(F)c(COC)c(F)c2F)C1(C)C` [compound of the present invention (3), 4-methoxymethyl-2,3,5,6-tetrafluorobenzyl=(1R)-trans-3-[(1EZ)-2-cyano-2-(ethylthio)ethenyl]-2,2-dimethylcyclopropane carboxylate], the “Knock-down ratio (%) 2 minutes” value in experiment [1] was found to be 100%. For the same compound, the “Knock-down ratio (%) 7 minutes after spraying” value in experiment [4] is recorded as 95%.
